Article PMC10244169, “Psychedelics promote plasticity by directly binding to BDNF receptor TrkB” (Nature Neuroscience, 2023)
Structures can show the parent of a compound that is named as a salt. Where two headings read alike, the source gives them in different places.

Columns and labels:
TrkB [1] = target: T1, TrkB (Rattus norvegicus, UniProt Q63604); assay: biochemical; type: binding; settings: for Bmax (specific binding with Hill slope, best-fit) / h (Hill slope, best-fit): ext fig 1f, competition curve, n=5; for displacement of ^3H-LSD from TrkB: 1 nM to 10 µM of drug
T1 construct: expressed in transfected cells; host or cells: HEK293T
T1 sequence (Q63604 32-821): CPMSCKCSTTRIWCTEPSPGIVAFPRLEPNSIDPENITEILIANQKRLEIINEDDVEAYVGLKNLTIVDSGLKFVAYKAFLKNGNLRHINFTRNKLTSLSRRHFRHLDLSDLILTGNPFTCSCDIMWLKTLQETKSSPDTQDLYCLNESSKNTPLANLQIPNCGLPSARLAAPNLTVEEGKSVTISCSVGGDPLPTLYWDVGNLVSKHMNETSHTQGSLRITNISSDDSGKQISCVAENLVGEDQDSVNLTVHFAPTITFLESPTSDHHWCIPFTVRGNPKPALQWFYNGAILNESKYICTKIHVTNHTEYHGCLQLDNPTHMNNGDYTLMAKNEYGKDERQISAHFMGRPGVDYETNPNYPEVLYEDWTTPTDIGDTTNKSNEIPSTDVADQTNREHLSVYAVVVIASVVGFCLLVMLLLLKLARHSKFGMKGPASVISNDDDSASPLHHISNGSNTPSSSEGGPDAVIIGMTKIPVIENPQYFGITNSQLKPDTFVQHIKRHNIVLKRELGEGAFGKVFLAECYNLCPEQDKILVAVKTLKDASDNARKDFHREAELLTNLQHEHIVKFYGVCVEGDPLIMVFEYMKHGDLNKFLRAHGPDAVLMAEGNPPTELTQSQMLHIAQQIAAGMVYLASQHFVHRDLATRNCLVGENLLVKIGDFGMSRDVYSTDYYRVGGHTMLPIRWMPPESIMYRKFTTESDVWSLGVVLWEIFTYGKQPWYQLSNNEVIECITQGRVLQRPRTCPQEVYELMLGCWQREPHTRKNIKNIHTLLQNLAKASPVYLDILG

TrkB (WT) dimerization = target: T2, TrkB (WT) dimerization (Rattus norvegicus, UniProt Q63604); assay: Split-luciferase PCA of TrkB dimerization in N2a cells; type: cell-based; settings: for Group mean (Mean 2; Vehicle:Vehicle = 100), fig 4e: n=48
T2 construct: expressed in transfected cells; host or cells: N2a
T2 sequence (Q63604 32-821): as above
T2 sequence (Q63604 32-821): as above
Protocol: Ketanserin, M100907 and TRKB.FC were added to the media 10 min before treatment. The PCA method was performed as previously described[11],[75],[76]. Split humanized Gaussia princeps luciferase (hGLuc) was cloned on the C-terminus of the reporter proteins TrkB (WT and Y433F) and lipid raft Fyn. If the reporter proteins that carry complementary halves of the luciferase interact, the enzyme can refold in its functional conformation and, upon addition of its substrate, produce luminescence proportionally to the amount of reporter proteins interacting at a given time. N2a cells were seeded in 96-well plates with opaque walls and transparent bottom (PerkinElmer, ViewPlate 96). Cells were transfected with Lipofectamine 2000 according to the manufacturer’s instructions 24 h post-plating with the PCA pair plasmids: phGLuc(1C)-TrkB(WT) or the mutant phGLuc(1C)-TrkB(Y433F) and phGLuc(2 C)-TrkB(WT) for the dimerization experiments; phGLuc(1C)-lipid raft Fyn and phGLuc(2C)-TrkB(WT) or phGLuc(2C)-TrkB(Y433F) for the lipid raft localization experiments. Forty-eight hours post transfection, cells were treated (40 min, 37 °C) in phenol red-free Dulbecco’s modified Eagle medium without serum. […] The PCA signal was detected with the substrate for the luciferase, native coelenterazine, which was injected into each well directly in the plate reader at a final concentration of […].

[2] = system: spine density of neuronal cultures; assay: Spinogenesis in mature neuronal cultures (WT and Y433F^+/−); type: cell-based, mouse; set-up: 6d: Mean (spinogenesis, spine density) / 6e: Mean (spinogenesis, spine density): unit not given here
Protocol: Spinogenesis experiments were performed similarly to previous studies[12],[13] with modifications. […] In a separate set of experiments to study the effects of extracellular BDNF and 5-HT2A activation, cultures were also pretreated for 10 min with TrkB.FC (200 ng ml^−1) or M100907 (100 nM), respectively. TrkB.FC and M100907 remained in the medium for the rest of the experiment. Twenty-four hours later, coverslips were fixed with 4% PFA, washed with PBS, incubated with blocking buffer (0.1% Triton X-100, 0.05% Tween-20, 10% normal donkey serum, 1% BSA and 0.1% gelatin in PBS) for 1 h at room temperature and then overnight with rabbit anti-MAP2 (Invitrogen, PA5-17646; 1:100) primary antibody at 4 °C. After washing with PBS, coverslips were incubated with CF568-conjugated donkey anti-rabbit (Biotium, 20098; 1:500) for 1 h at room temperature. Another round of PBS washes was followed by incubation with Alexa Fluor 647-conjugated phalloidin (Invitrogen, A22287; 1:40) overnight at 4 °C. Next, coverslips were briefly washed in phosphate buffer (PB) and mounted on slides with ProLong Glass Antifade Mountant (Invitrogen, P36982). We used a Zeiss LSM 880 confocal microscope with an AiryScan GaAsP detector equipped with a PlanApochromat 63×/1.4 NA objective. We used the BP 495–550 + LP 570 AiryScan filter and Zen Black in super-resolution mode for image acquisition. Pinhole size was adapted accordingly, and frame size was set to optimal. Sensors were set to continuous adjustment across the imaging sessions to ensure optimal sensor alignment and signal detection. Raw data were processed into AiryScan images with the autofilter mode on using Zen Blue. Finally, image analysis was performed in ImageJ by experimenters blinded for treatment and genotype. Spines were quantified in 15-µm-long dendrite sections.

[3] = system: dendritic arbor complexity of neuronal cultures; assay: Dendritogenesis (Sholl analysis) in neuronal cultures (WT and Y433F^+/−); type: cell-based, mouse; settings: for Sholl analysis, Mean at distance from soma: fig 6j
Protocol: In a separate set of experiments to study the effects of extracellular BDNF and 5-HT2A activation, cultures were also pretreated for 10 min with TrkB.FC (200 ng ml^−1) or M100907 (100 nM), respectively. Similar to treatment with the psychedelics, TrkB.FC and M100907 pretreatments were administered in cumulative doses and remained in the medium for the rest of the experiment. At DIV7, neurons were pre-incubated for 1 h with […] MgCl2 to prevent excitotoxicity, then neurons were transfected for the heterologous expression of mCherry. To minimize any possible interference of the transfection protocol upon the drug effect, transfection was done in the morning while treatment with psychedelics was always added in the evening. Twenty-four hours after transfection, neurons were fixed with 4% PFA for 20 min at room temperature, washed in PBS-T, blocked for 30 min with 3% BSA in PBS-T and incubated with chicken anti-MAP2 (Abcam, ab5392; 1:5,000, 1 h, room temperature). Then, coverslips were washed in PBS-T and incubated with Alexa Fluor 647-conjugated antibody goat anti-chicken (Invitrogen, A-21449; 1:1,000, 1 h, room temperature). Next, coverslips were washed in PBS-T and MilliQ water, and mounted in Dako fluorescence mounting medium (Agilent, S302380-2). Ten optical sections with a Z-step of 1.3 μm were acquired using a Zeiss LSM 710 confocal microscope with a LCI Plan/Neofluar 25×/0.8 lmm Korr DIC M27 objective. In the mCherry channel, the center of the soma was manually assigned and the number of dendritic intersections at fixed distances (every 5 μm) from the soma was automatically counted using the Sholl analysis plugin of ImageJ.

eGFP-tagged TrkB (WT) = target: T3, eGFP-tagged TrkB (WT) (Rattus norvegicus, UniProt Q63604); assay: Microscale thermophoresis (MST) in HEK293T lysates; type: binding; settings: native (WT) TrkB
T3 construct: expressed in transfected cells; host or cells: HEK293T
T3 sequence (Q63604 32-821): as above
Protocol: MST experiments were performed using the Monolith NT.115 (Blue/Red) instrument (NanoTemper Technologies). Lysates of HEK293T cells expressing GFP-tagged TrkB (WT, Y433F, TrkA.TM) were lysed, vortexed, sonicated and centrifuged 24 h after transient transfection and used as a source of fluorescently labeled TrkB, similarly to previously described protocols[11],[45]–[47]. The advantage of this approach is the possibility of studying the proteins in close-to-native conditions. However, the presence of other proteins, lipids, nucleic acids and other components of crude cell lysates can alter the diffusion of biomolecules and therefore binding affinities. High viscosity and background signal typically results in the affinity values being orders of magnitude […] than those of more traditional binding assays. […] The measurements were performed in premium coated capillaries (NanoTemper Technologies, MO-K025) using a LED source with 470 nm and 50% infrared-laser power at 25 °C. Analysis was performed using MO Affinity Analysis 2.3. Results were fitted to specific binding with Hill slope equations from GraphPad Prism 9.2.

TrkB [4] = target: T1, TrkB; assay: Biotin-labeled BDNF binding to immunoprecipitated TrkB; settings: ext fig 1e, n=4
Protocol: Binding assays were performed as previously described with minor modifications. […] Samples from mouse embryo (E18) brains were also lysed, vortexed, sonicated and centrifuged for binding assays. Plates were then washed with PBS. […] For the competition binding assays with biotinylated R,R-HNK, the amino-biotinylation of R,R-HNK was performed using a commercial kit (Thermo Scientific, EZ-Link NHS-PEG4 Biotinylation Kit, 21455) and the reaction monitored by MS. A mixture of biotinylated R,R-HNK (10 µM) and unlabeled compounds (1 pM to 10 µM) in PBS was added to the 96-well plates containing the immunoprecipitated TrkB and incubated for 1 h at room temperature. […] Luminescence was determined via streptavidin conjugated with horseradish peroxidase (HRP; Thermo Fisher Scientific, 21126; 1:5,000, 1 h at room temperature) in reaction with the Pierce ECL substrate (Thermo Fisher Scientific, 32106). Luminescence from blank wells that contained all reagents but the sample lysates was used to determine nonspecific binding. To obtain the binding curves, results from binding assays were fitted to the equation of specific binding with Hill slope from GraphPad Prism 9.2. To calculate koff values, results were fitted to the equation of dissociation of one phase exponential decay from GraphPad Prism 9.2.

[5] = treatment alone (other factor Vehicle)
[6] = TrkB.FC 200 ng ml^−1 or M100907 100 nM

Molecule: CNC1(c2ccccc2Cl)CCCCC1=O (centres unmarked) [ketamine, Ketamine hydrochloride]
- Ki (TrkB [1]): 20800 ± 8860 nM
- Bmax (specific binding with Hill slope, best-fit) (TrkB [1]): 98.59
- h (Hill slope, best-fit) (TrkB [1]): -0.5468

Molecule: CN1C(=O)CN=C(c2ccccc2)c2cc(Cl)ccc21 [diazepam]
- displacement of ^3H-LSD from TrkB (TrkB [1]): fail to displace ^3H-LSD
- Fit status, one phase exponential decay (TrkB [1]; ext fig 1h): Not converged

Molecule: TrkB.FC: TrkB receptor bodies that sequester extracellular BDNF
- effect of pretreatment on LSD- and BDNF-induced TrkB dimerization (TrkB (WT) dimerization; ketanserin 100 nM, M100907 100 nM or TrkB.FC 200 ng ml^−1, 10 min before): prevents the effects of LSD and BDNF on TrkB dimerization
- Group mean (Mean 2; Vehicle:Vehicle = 100), fig 4e (TrkB (WT) dimerization; [5]): 100
- effect of pretreatment on spinogenic effect of LSD [2, 6]: prevented the spinogenic effect of LSD
- 6e: Mean Diff. (Vehicle:Vehicle vs. treatment), Bonferroni's multiple comparisons test ([2]; substance alone (with vehicle)): -0.45
- 6e: Mean (spinogenesis, spine density) ([2]; substance alone (with vehicle), Vehicle:Vehicle mean 7.05): 7.5
- effect of pretreatment on LSD effects on dendritogenesis [3, 6]: prevented LSD effects on dendritogenesis
- dendritic arbor complexity, Mean Diff. (Vehicle:vehicle vs. group) ([3]; fig 6i, Bonferroni's multiple comparisons test): 9.033
- dendritic arbor complexity, group mean (Mean 2) ([3]; fig 6i, treatment:pretreatment groups, Vehicle:vehicle mean 69.72): 60.69
- Sholl analysis, Mean at distance from soma ([3]; distance from soma 10 µm): 6.276
- Sholl analysis, Mean at distance from soma ([3]; distance from soma 15 µm): 6.586
- Sholl analysis, Mean at distance from soma ([3]; distance from soma 20 µm): 5.414
- Sholl analysis, Mean at distance from soma ([3]; distance from soma 25 µm): 4.966
- Sholl analysis, Mean at distance from soma ([3]; distance from soma 30 µm): 4.621
- Sholl analysis, Mean at distance from soma ([3]; distance from soma 35 µm): 3.655
- Sholl analysis, Mean at distance from soma ([3]; distance from soma 40 µm): 3.414
- Sholl analysis, Mean at distance from soma ([3]; distance from soma 45 µm): 2.655
- Sholl analysis, Mean at distance from soma ([3]; distance from soma 50 µm): 2.724
- Sholl analysis, Mean at distance from soma ([3]; distance from soma 55 µm): 2.759
- Sholl analysis, Mean at distance from soma ([3]; distance from soma 60 µm): 2.2069
- Sholl analysis, Mean at distance from soma ([3]; distance from soma 65 µm): 2.241
- Sholl analysis, Mean at distance from soma ([3]; distance from soma 70 µm): 2.172
- Sholl analysis, Mean at distance from soma ([3]; distance from soma 75 µm): 1.897
- Sholl analysis, Mean at distance from soma ([3]; distance from soma 80 µm): 1.862
- Sholl analysis, Mean at distance from soma ([3]; distance from soma 85 µm): 2.034
- Sholl analysis, Mean at distance from soma ([3]; distance from soma 90 µm): 1.931
- Sholl analysis, Mean at distance from soma ([3]; distance from soma 95 µm): 1.621
- Sholl analysis, Mean at distance from soma ([3]; distance from soma 100 µm): 1.655

Molecule: CN(C)CCCN1c2ccccc2Sc2ccc(Cl)cc21 [chlorpromazine]
- displacement of ^3H-LSD from TrkB (TrkB [1]): fail to displace ^3H-LSD
- Fit status, one phase exponential decay (TrkB [1]; ext fig 1h): Interrupted
- K (one phase exponential decay, best-fit) (TrkB [1]; ext fig 1h): 6.169
- Plateau (one phase exponential decay, best-fit) (TrkB [1]; ext fig 1h): 142318
- Span (one phase exponential decay, best-fit) (TrkB [1]; ext fig 1h): -142224

Molecule: N[C@@]1(c2ccccc2Cl)CCC[C@@H](O)C1=O [R,R-HNK, 2R,6R-hydroxynorketamine]
- Ki (TrkB [1]; displacement of ^3H-LSD, read-out: Ki): 166 ± 21.1 nM
- Bmax (specific binding with Hill slope, best-fit) (TrkB [1]): 107.6
- h (Hill slope, best-fit) (TrkB [1]): -0.8819

B1: BDNF: Brain-derived neurotrophic factor (protein, UniProt P23560 19-247, looked up)
Neurotrophic factor BDNF …: APMKEANIRGQGGLAYPGVRTHGTLESVNGPKAGSRGLTSLADTFEHVIEELLDEDQKVRPNEENNKDADLYTSRVMLSSQVPLEPPLLFLLEEYKNYLDAANMSMRVRRHSDPARRGELSVCDSISEWVTAADKKTAVDMSGGTVTVLEKVPVSKGQLKQYFYETKCNPMGYTKEGCRGIDKRHWNSQCRTTQSYVRALTMDSKKRIGWRFIRIDTSCVCTLTIKRGR
- binding by MST (eGFP-tagged TrkB (WT)): induces a shift in fluorescence
- Group mean (Mean 2; Control:Vehicle = 100), fig 4f (TrkB (WT) dimerization; BDNF 0.1ng/ml, Control (no LSD), n=8): 147.4
- Group mean (Mean 2; Vehicle:Vehicle = 100), fig 4e (TrkB (WT) dimerization; [5]): 144.1
- Group mean (Mean 2; Vehicle:Vehicle = 100), fig 4e (TrkB (WT) dimerization; with TrkB.FC): 103
- Bmax (specific binding with Hill slope, best-fit) (TrkB [4]): 7.546
- h (Hill slope, best-fit) (TrkB [4]): 0.8134
- Kd (TrkB [4]; read-out: Kd (specific binding with Hill slope, best-fit)): 1220 nM
